Earlier results, collected in US20090018107A1, “NOVEL COMPOSITION TO INCREASE MUSCLE STRENGTH” (ORAL DELIVERY TECHNOLOGY LTD., priority 2007, published 2009).

Tests used:
[1] = U.S. Pat. No. 5,880,117
[2] = U.S. Pat. No. 6,989,378

Structure (SMILES): C[C@]12CC[C@H]3[C@@H](CCC4=C[C@@H](O)CC[C@@]43C)[C@@H]1CC[C@@H]2O [4-androstene-3β,17β-diol]
- Period of decline after the peak [1]: 3 to 4 h
- Time to peak concentration after administration [1]: ≤ 90 min

Structure (SMILES): CCCCCCCCCCC(=O)O[C@H]1CC[C@H]2[C@H]3[C@H](CC[C@]12C)[C@H]1CCC(=O)C=C1C[C@H]3C [MENT undecanoate, (7α,17β)-7-methyl-17-[(1-ox-oundecyl)oxy]estr-4-en-3one]
- Solubility in oily media [2]: good solubility
